# Columns and labels:
# [1] = tested on: human aortic vascular smooth muscle cells (HAoSMC); assay: HAoSMC proliferation (BrdU uptake); assay type: cell-based; conditions: serum-supplemented media (5%), 24 hours
# [2] = cited from earlier work
sequence,measurement,setting,value
GLSKGCFGLKLDRIGSMSGLGC [CNP],reduced proliferation,[1]; 10^−5 M NP,about 30%
same,reduced proliferation,[1]; 10^−6 M NP,about 20%
same,reduced proliferation,[1]; 10^−7 M NP,about 20%
same,half-life after administration to a mammal,[2],about a minute and a half

# Source: patent US9079973B2, “Natriuretic polypeptides for reducing restenosis” (Mayo Foundation for Medical Education and Research, priority 2008, dated 2015)
